From patent US6436682B1, “Luciferases, fluorescent proteins, nucleic acids encoding the luciferases and fluorescent proteins and the use thereof in diagnostics, high throughput screening and novelty items” (Prolume, Ltd., priority 1998, dated 2002)
Where two headings read alike, the source gives them in different places.

T1: Renilla luciferase (Renilla reniformis, UniProt P27652)
T1 sequence (P27652 1-311): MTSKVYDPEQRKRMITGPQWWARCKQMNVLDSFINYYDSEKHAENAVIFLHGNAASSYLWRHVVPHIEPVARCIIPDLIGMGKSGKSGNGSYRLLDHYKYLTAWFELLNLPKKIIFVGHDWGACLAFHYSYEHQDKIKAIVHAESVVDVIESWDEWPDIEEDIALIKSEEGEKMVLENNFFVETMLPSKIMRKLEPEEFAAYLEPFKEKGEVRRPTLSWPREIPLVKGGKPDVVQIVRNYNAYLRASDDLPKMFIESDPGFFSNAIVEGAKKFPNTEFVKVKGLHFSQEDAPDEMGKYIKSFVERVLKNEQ


Key:
mice = assay: Repeated i.p. administration, gross signs of toxicity in behavior; assay type: in vivo; conditions: 1 mg/kg i.p., daily administration for three days
Protocol: […] Mice are examined over the course of the study for any gross signs of toxicity as evidenced in their behavior. At the end of the one-week period, blood is collected by cardiac puncture immediately prior to sacrifice. Animals are sacrificed and ten different tissue samples are removed post mortem from each animal. Isolated tissues are fixed, stained, blocked and sectioned. The pathology of the tissue samples are analyzed and the toxicology data are compiled.

Renilla luciferase = molecular target: T1, Renilla luciferase; conditions: cited from earlier work
[1] = assay type: physicochemical
From the text: Coelenterazine is not terribly soluble in non-irritant vehicles. Coelenterazine is soluble to at least to a concentration of 200 micrograms/mL in a solution of 2% (w/v) PEG 400 containing about 0.8% (w/v) NaCl. Although this solution is slightly hypertonic, it is not an irritant for vehicle purposes.

HeLa cells = assay: Functional expression of Renilla mulleri GFP in mammalian cells; assay type: cell-based; conditions: 30 micrograms pcDNA-Renilla mulleri GFP DNA, 37° C., 8 hours, CMV promoter
From the text: HeLa cells were transfected with the plasmid pcDNA3.1(+) containing Renilla mulleri GFP under the control of a CMV promoter (construct No. B(1) as described above). […]
The fluorescence was localized to pairs of cells that were undergoing, or apparently had recently undergone, a single round of cell-division. […] This is in contrast to the Aequorea GFP, which folds inefficiently into a functional form under the physiological conditions.
Filters (470/40 excitation filter, 495 excitation dichroic filter and 525/50 emission filter) used in visualization of R. mulleri GFP fluorescence in HeLa cells were the Endo GFP filter set sold by Chroma.

[2] = Renilla luciferase, in the presence of Renilla GFP
[3] = Renilla luciferase, without GFP

Molecule | gross behavior changes (mice) | bioluminescence quantum yield (Renilla luciferase; [2]) [%] | increase in the amount of light emitted upon addition of GFP (Renilla luciferase; Renilla luciferase, with versus without GFP) | bioluminescence quantum yield (Renilla luciferase; [3]) | solubility [1] [micrograms/mL] | peak of emitted light (Renilla luciferase; luciferase, upon addition of GFP) [nm] | fluorescence of transfected cells (HeLa cells)
coelenterazine | no gross behavior changes | 13 | nearly two-fold | 6.9% | ≥ 200 | – | –
O=C(Cc1ccc(O)cc1)NC1N=CC(c2ccccc2)=NC1Cc1ccccc1 (stereo not drawn) [coelenterazine of formula (V)] | – | 2.3 | – | about 0.012% | – | 509 | –
Renilla mulleri GFP: green fluorescent protein of Renilla mulleri, 238 amino acids, SEQ ID No. 16 (protein, listed as Renilla mulleri, Renilla mulleri Green Fluorescent Protein (GFP)) MSKQILKNTCLQEVMSYKVNLEGIVNNHVFTMEGCGKGNILFGNQLVQIRVTKGAPLPFAFDIVSPAFQYGNRTFTKYPNDISDYFIQSFPAGFMYERTLRYEDGGLVEIRSDINLIEDKFVYRVEYKGSNFPDDGPVMQKTILGIEPSFEAMYMNNGVLVGEVILVYKLNSGKYYSCHMKTLMKSKGVVKEFPSYHFIQHRLEKTYVEDGGFVEQHETAIAQMTSIGKPLGSLHEWV | – | – | – | – | – | – | highly fluorescent
